Measured values reported in patent publication US5610297A, “Peptides ketoamides” (Georgia Tech Research Corp., priority 1995, dated 1997).

Key:
[1] = target: Calpain II from rabbit muscle; test: Inhibition of calpain II (Suc-Leu-Tyr-AMC hydrolysis); format: biochemical
Protocol: (§1) Materials and Methods. HEPES, heparin, and A23187 were obtained from Calbiochem. Suc-Leu-Tyr-AMC and chromogenic substrates were obtained from Sigma. Calpain I was purified from human erythrocytes according to the method of Kitahara (Kitahara et al., J. Biochem. 95, 1759-1766) omitting the Blue-Sepharose step. Calpain II from rabbit muscle and cathepsin B were purchased from Sigma. Papain was purchased from Calbiochem.
(§2) Assay of Inhibitory Potency. Peptide α-ketoamides were assayed as reversible enzyme inhibitors. Various concentrations of inhibitors in Me2 SO were added to the assay mixture which contained buffer and substrate. The reaction was started by the addition of the enzyme and the hydrolysis rates were followed spectrophotometrically or fluorimetrically.
(§3) Calpain I from human erythrocytes and calpain II from rabbit were assayed using Suc-Leu-Tyr-AMC [Sasaki et al., J. Biol. Chem. 259, 12489-12494 (1984); incorporated herein by reference], and the AMC (7-amino-4-methylcoumarin) release was followed fluorimetrically (excitation at 380 nm, and emmision at 460 nm). Calpains were assayed in 25 mM Tris pH=8.0, 10 mM CaCl2. Fluorescence was followed using a Gilson FL-1A fluorometer or a Perkin-Elmer 203 Fluorescence spectrometer. Cathepsin B was assayed in 20 mM sodium acetate pH=5.2, 0.5 mM dithiothreitol using Bz-Phe-Val-Arg-p-nitroanilide as substrate. Alternately, cathepsin B was assayed with Z-Arg-Arg-AFC [Barrett and Kirschke, Methods Enzymol. 80, 535-561 (1981); incorporated herein by reference], and the AFC (7-amino-4-trifluoromethylcoumarin) release was followed fluorimetrically (excitation at 400 nm and emmision at 505 nm). Papain was assayed in 100 mM KPO4, 1 mM EDTA, 2.5 mM cysteine pH=6.0 using Bz-Arg-AMC or Bz-Arg-NA [Kanaoka et al., Chem. Plmrm. Bull. 25, 3126-3128 (1977); incorporated herein by reference] as a substrate. The AMC (7-amino-4-methylcoumarin) release was followed fluorimetrically (excitation at 380 nm, and emmision at 460 nm). Enzymatic hydrolysis rates were measured at various substrate and inhibitor concentrations, and KI values were determined by either Lineweaver-Burk plots or Dixon plots.
(§4) A 0.1M Hepes, 0.5M NaCl, pH 7.5 buffer was utilized for human leukocyte elastase (HLE), porcine pancreatic elastase (PPE), chymotrypsin and cathepsin G. A 0.1 Hepes, 0.01M CaCl2, pH 7.5 buffer was utilized for trypsin, plasmin, and coagulation enzymes. A 50 mM Tris-HCl, 2 mM EDTA, 5 mM cysteine, pH 7.5 was used as a buffer for papain. A 88 mM KH2 PO4, 12 mM Na2 HPO4, 1.33 mM EDTA, 2.7 mM cysteine, pH 6.0 solution was used as a buffer for cathepsin B. A 20 mM Hepes, 10 mM CaCl2, 10 mM mercatoethanol, pH 7.2 buffer was utilized for calpain I and calpain II.

[2] = target: cathepsin B; test: Inhibition of cathepsin B; format: biochemical; conditions: read-out: KI Cath B
Protocol: as §1, §2, §3, §4

[3] = target: chymotrypsin (Bos taurus, UniProt P00766, DEL14-15/DEL147-148); test: Inhibition of chymotrypsin (Suc-Val-Pro-Phe-NA hydrolysis); format: biochemical, bovine
Protocol: as §2, §4
(§5) HLE and PPE were assayed with MeO-Suc-Ala-Ala-Pro-Val-NA and Suc-Ala-Ala-Ala-NA, respectively [Nakajima et al., J. Biol. Chem. 254, 4027-4032 (1979); incorporated herein by reference]. Human leukocyte cathepsin G and chymotrypsin Aα were assayed with Suc-Val-Pro-Phe-NA [Tanaka et al., Biochemistry 24, 2040-2047 (1985); incorporated herein by reference]. The hydrolysis of peptide 4-nitroanilides was measured at 410 nm [ε410 =8800 M^-1 cm^-1; Erlanger et al., Arch. Biochem. Biophys. 95, pp 271-278 (1961); incorporated herein by reference]. Trypsin, thrombin, human plasma kallikrein, porcine pancreatic kallikrein, human factor XIa, and human plasmin were assayed with Z-Arg-SBzl or Z-Gly-Arg-SBu-i [McRae et al., Biochemistry 20, 7196-7206 (1981); incorporated herein by reference]. All peptide thioester hydrolysis rates were measured with assay mixtures containing 4,4'-dithiodipyridine [ε324 =19800 M^-1 cm^-1; Grasetti & Murray, Arch. Biochem. Biophys. 119, 41-49 (1967); incorporated herein by reference].

[4] = Half-life in plasma; format: in vitro ADME; conditions: unit inferred, unit assumed
[5] = Half-life in liver; format: in vitro ADME; conditions: unit inferred, unit assumed
[6] = tested on: Calpain-mediated breakdown of spectrin in platelets; test: Platelet membrane permeability assay; format: cell-based, rat; set-up: unit not given here; conditions: numeric value, unit not given
Protocol: Platelet membrane permeability assay. Calpain-mediated breakdown of spectrin was measured by quantitative densitometry of the calpain-specific 150/155 kDa spectrin fragment doublet [see Siman et al., Proc. Natl. Acad. Sci. USA 81, 3572-3576 (1984)]. Platelets were isolated by a modification of the method of Ferrell and Martin [J. Biol. Chem. 264, 20723-20729 (1989)]. Blood (15-20 ml) was drawn from male Sprague-Dawley rats into 1/10th volume of 100 mM EDTA-citrate, and centrifuged 10 minutes at 2000 rpm in a clinical centrifuge at room temperature. […] Platelets were washed once in 15 ml buffer 1, then resuspended to 10^7 cells/ml in buffer 2 (136 mM NaCl, 2.7 mM KCl, 0.42 mM NaH2 PO4, 12 mM NaHCO3, 2mM MgCl, 1 mg/ml BSA (Sigma), 5.6 mM glucose, 20 mM HEPES (Sigma) pH 7.4) and allowed to "rest" for a minimum of 10 minutes at room temperature before use.
Inhibitors were added from stock solutions made fresh in DMSO. 100 μl platelets, suspended to 10^7 cells/ml in buffer 2, were incubated with 1 μl of an inhibitor solution for 5 minutes at room temperature prior to the addition of 2 mM Ca^2+ and 1 uM A23 187. After 10 minutes total exposure to inhibitor (5 minutes exposure to ionophore) at room temperature, platelets were reisolated at 14,000 rpm for 10 sec in a Beckman microfuge, dissolved in SDS-PAGE sample buffer, and heated to 90° C. for 3 minutes.
Samples were subjected to SDS-PAGE in 4-12% gradient mini gels (Novex) and transferred to nitrocellulose (Schleicher and Schuell 0.45 um) by electroblotting. Filters were blocked for 10 minutes in 0.25% gelatin, 1% BSA, 0.25% triton X100, 0.9% NaCl, 10 mM Tris-Cl pH 7.5, incubated overnight in the same solution containing antibody to rat spectrin, washed 3×10 minutes with 10 mM Tris-Cl pH 7.5, 0.5% triton X100, incubated 4 hours in wash buffer plus alkaline phosphatase conjugated goat anti-rabbit antibody (Biorad), and washed as above. Blots were developed using the Biorad AP conjugate substrate kit. Quantitative densitometry was used to obtain values for the intact spectrin bands and the 150/155 kDa breakdown product doublet.

[7] = target: porcine pancreatic elastase (PPE) (Sus scrofa, UniProt P00772); test: Inhibition of PP elastase (Suc-Ala-Ala-Ala-NA hydrolysis); format: biochemical
porcine pancreatic elastase (PPE), sequence (P00772 27-266): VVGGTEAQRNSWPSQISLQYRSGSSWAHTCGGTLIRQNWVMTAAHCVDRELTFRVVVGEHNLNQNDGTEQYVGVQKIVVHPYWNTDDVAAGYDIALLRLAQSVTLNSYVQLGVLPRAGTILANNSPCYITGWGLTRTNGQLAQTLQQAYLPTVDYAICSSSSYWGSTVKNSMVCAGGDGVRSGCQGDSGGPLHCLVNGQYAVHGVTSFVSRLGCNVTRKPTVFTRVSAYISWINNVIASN
Protocol: as §2, §4, §5

## CCC(NC(=O)C(CC(C)C)NC(=O)OCc1ccccc1)C(=O)C(=O)NCc1ccccc1 (stereo not drawn) [Z--Leu--Abu--CONH--Bzl, Z-Leu-Abu-CONH-Bzl]
[1]
  Ki: 350 nM
[2]
  Ki: 2000 nM
[3]
  Ki: > 300000 nM
[4]
  t 1/2 plasma: > 1 h
[5]
  t 1/2 liver: > 1 h
[6]
  platelet (Activity in the Platelet Assay): 1.5

## CCCNC(=O)C(=O)[C@H](CC)NC(=O)[C@H](CC(C)C)NC(=O)OCc1ccccc1 [Z--Leu--Abu--CONH--nPr, Z-Leu-Abu-CONH-nPr]
[1]
  Ki: 250 nM
[2]
  Ki: 8000 nM
[3]
  Ki: > 300000 nM
[7]
  Ki: 2000 nM
[4]
  t 1/2 plasma: > 1 h
[5]
  t 1/2 liver: > 1 h
[6]
  platelet (Activity in the Platelet Assay): 70

## CC[C@H](NC(=O)[C@H](CC(C)C)NC(=O)OCc1ccccc1)C(=O)C(=O)NCCCN1CCOCC1 [Z--Leu--Abu--CONH--(CH2)3 --Mpl, Z-Leu-Abu-CONH-(CH2)3 --N(CH2 CH2)2 O]
[1]
  Ki: 41 nM

## CCOC(=O)C(=O)[C@H](CC)NC(=O)[C@H](CC(C)C)NC(=O)OCc1ccccc1 [Z--Leu--Abu--COOEt]
[4]
  t 1/2 plasma: 0.0467 h
[6]
  platelet (Activity in the Platelet Assay): 42

## CCOC(=O)C(=O)C(Cc1ccccc1)NC(=O)C(CC(C)C)NC(=O)OCc1ccccc1 (stereo not drawn) [Z--Leu--Phe--COOEt, Z-Leu-Phe-COOEt]
[4]
  t 1/2 plasma: 0.13 h
[6]
  platelet (Activity in the Platelet Assay): 42

## CCCC(NC(=O)C(CC(C)C)NC(=O)OCc1ccccc1)C(=O)C(=O)OCC (stereo not drawn) [Z--Leu--Nva--COOEt]
[4]
  t 1/2 plasma: 0.0467 h
[6]
  platelet (Activity in the Platelet Assay): 40

## CCOC(=O)C(=O)C(CC)NC(=O)C(CC(C)C)NC(=O)C(CC(C)C)NC(=O)OCc1ccccc1 (stereo not drawn) [Z--Leu--Leu--Abu--COOEt]
[6]
  platelet (Activity in the Platelet Assay): 40

## CC(C)CNC(=O)C(=O)[C@H](Cc1ccccc1)NC(=O)[C@H](CC(C)C)NC(=O)OCc1ccccc1 [Z--Leu--Phe--CONH--iBu, Z-Leu-Phe-CONH-iBu]
[1]
  Ki: 65 nM
[2]
  Ki: 4000 nM
[3]
  Ki: 24000 nM
[4]
  t 1/2 plasma: > 1 h
[6]
  platelet (Activity in the Platelet Assay): 22

## CC(C)C[C@H](NC(=O)OCc1ccccc1)C(=O)N[C@@H](Cc1ccccc1)C(=O)C(=O)NCCc1ccccc1 [Z--Leu--Phe--CONH(CH2)2 Ph, Z-Leu-Phe-CONH-(CH2)2 Ph]
[1]
  Ki: 24 nM
[4]
  t 1/2 plasma: > 1 h
[6]
  platelet (Activity in the Platelet Assay): 3.0

## CCCCOC(=O)C(=O)[C@H](CC)NC(=O)[C@H](CC(C)C)NC(=O)OCc1ccccc1 [Z--Leu--Abu--COOn--Bu]
[6]
  platelet (Activity in the Platelet Assay): 28

## CCCCCCCCNC(=O)C(=O)[C@H](CC)NC(=O)[C@H](CC(C)C)NC(=O)OCc1ccccc1 [Z--Leu--Abu--CONH--(CH2)7 CH3, Z-Leu-Abu-CONH--(CH2)7 CH3]
[1]
  Ki: 19 nM

## CCOC(=O)C(=O)[C@H](CC)NC(=O)[C@H](CC(C)C)NC(=O)[C@H](CC(C)C)NS(=O)(=O)c1ccc(C)cc1 [Tos--Leu--Leu--Abu--COOEt]
[4]
  t 1/2 plasma: 0.5 h
[6]
  platelet (Activity in the Platelet Assay): 30

## CCOC(=O)C(=O)C(CC)NC(=O)C(CC(C)C)NC(=O)C(CC(C)C)NS(=O)(=O)c1ccc2ccccc2c1 (stereo not drawn) [2-NapSO2--Leu--Leu--Abu--COOEt]
[4]
  t 1/2 plasma: > 1 h
[6]
  platelet (Activity in the Platelet Assay): 100

## CCOC(=O)C(=O)[C@H](CC)NC(=O)[C@H](CC(C)C)NC(=O)[C@H](CC(C)C)NC(=O)c1ccc2ccccc2c1 [2-NapCO--Leu--Leu--Abu--COOEt]
[4]
  t 1/2 plasma: 0.417 h

## CC(C)C[C@H](NC(=O)OCc1ccccc1)C(=O)N[C@@H](Cc1ccccc1)C(=O)C(=O)NCc1ccccc1 [Z--Leu--Phe--CONH--Bzl, Z-Leu-Phe-CONH-Bzl]
[1]
  Ki: 46 nM

## CCCCC(NC(=O)C(CC(C)C)NC(=O)OCc1ccccc1)C(=O)C(=O)OCC (stereo not drawn) [Z--Leu--Nle--COOEt]
[4]
  t 1/2 plasma: 0.0617 h
[6]
  platelet (Activity in the Platelet Assay): 20

## CCC(NC(=O)C(CC(C)C)NC(=O)OCc1ccccc1)C(=O)C(=O)NCC(C)C (stereo not drawn) [Z--Leu--Abu--CONH--iBu, Z-Leu-Abu-CONH-iBu]
[1]
  Ki: 140 nM
[2]
  Ki: 4000 nM
[3]
  Ki: > 300000 nM
[7]
  Ki: 40000 nM
[4]
  t 1/2 plasma: > 1 h
[6]
  platelet (Activity in the Platelet Assay): 28

## CCC(NC(=O)C(CC(C)C)NC(=O)OCc1ccccc1)C(=O)C(=O)NCCO (stereo not drawn) [Z--Leu--Abu--CONH--(CH2)2 OH, Z-Leu-Abu-CONH-(CH2)2 OH]
[1]
  Ki: 78 nM

## CC[C@H](NC(=O)[C@H](CC(C)C)NC(=O)OCc1ccccc1)C(=O)C(=O)NCCc1ccccc1 [Z--Leu--Abu--CONH--(CH2)2 --Ph, Z-Leu-Abu-CONH-(CH2)2 Ph]
[1]
  Ki: 22 nM

## CC(C)CC(NC(=O)OCc1ccccc1)C(=O)NC(Cc1ccccc1)C(=O)C(=O)O (stereo not drawn) [Z--Leu--Phe--COOH]
[4]
  t 1/2 plasma: > 1 h
[5]
  t 1/2 liver: > 1 h
[6]
  platelet (Activity in the Platelet Assay): 6.5

## CCCCNC(=O)C(=O)C(Cc1ccccc1)NC(=O)C(CC(C)C)NC(=O)OCc1ccccc1 (stereo not drawn) [Z--Leu--Phe--CONH--nBu, Z-Leu-Phe-CONH-nBu]
[1]
  Ki: 28 nM
[2]
  Ki: 3000 nM
[3]
  Ki: 8000 nM
[7]
  Ki: > 100000 nM
[4]
  t 1/2 plasma: > 1 h
[5]
  t 1/2 liver: > 1 h
[6]
  platelet (Activity in the Platelet Assay): 38

## CCC(NC(=O)C(CC(C)C)NC(=O)OCc1ccccc1)C(=O)C(=O)O (stereo not drawn) [Z--Leu--Abu--COOH]
[4]
  t 1/2 plasma: > 1 h
[5]
  t 1/2 liver: > 1 h
[6]
  platelet (Activity in the Platelet Assay): 8
